Assay results: ChEMBL document CHEMBL4325853, “Design, synthesis and antibacterial evaluation of 2,4-disubstituted-6-thiophenyl-pyrimidines” (Eur J Med Chem, 2019)
In brackets after ≈: the same amount, converted by molar mass. Activity calls are given as the source filed them. No cut-off for these calls is given here.

What was measured:
[1] = tested on: Bacillus subtilis; assay: Antibacterial activity against Bacillus subtilis 168 after 18 hrs by broth microdilution method; assay type: functional; settings: subsp. subtilis str. 168, 18 h
[2] = tested on: Enterococcus faecalis; assay: Antibacterial activity against Enterococcus faecalis ATCC 29212 after 18 hrs by broth microdilution method; assay type: functional; settings: ATCC 29212, 18 h
[3] = tested on: Escherichia coli; assay: Antibacterial activity against Escherichia coli ATCC 25922 after 18 hrs by broth microdilution method; assay type: functional; settings: ATCC 25922, 18 h
[4] = tested on: Staphylococcus aureus; assay: Antibacterial activity against methicillin-resistant Staphylococcus aureus ATCC BAA41 after 18 hrs by broth microdilution method; assay type: functional; settings: ATCC BAA41, 18 h
[5] = tested on: Staphylococcus aureus; assay: Antibacterial activity against methicillin-resistant Staphylococcus aureus ATCC 33591 after 18 hrs by broth microdilution method; assay type: functional; settings: ATCC 33591, 18 h
[6] = tested on: Enterococcus faecalis; assay: Antibacterial activity against vancomycin-resistant Enterococcus faecalis ATCC 700221 after 18 hrs by broth microdilution method; assay type: functional; settings: ATCC 700221, 18 h
[7] = tested on: Staphylococcus aureus; assay: Antibacterial activity against methicillin-resistant Staphylococcus aureus isolate 7971 after 18 hrs by broth microdilution method; assay type: functional; settings: isolate 7971, 18 h
[8] = tested on: Staphylococcus aureus; assay: Antibacterial activity against methicillin-resistant Staphylococcus aureus isolate 7807 after 18 hrs by broth microdilution method; assay type: functional; settings: isolate 7807, 18 h
[9] = tested on: Staphylococcus aureus; assay: Antibacterial activity against methicillin-resistant Staphylococcus aureus isolate 2491 after 18 hrs by broth microdilution method; assay type: functional; settings: isolate 2491, 18 h
[10] = tested on: Staphylococcus aureus; assay: Antibacterial activity against methicillin-resistant Staphylococcus aureus isolate 2931 after 18 hrs by broth microdilution method; assay type: functional; settings: isolate 2931, 18 h
[11] = tested on: Staphylococcus aureus; assay: Antibacterial activity against methicillin-resistant Staphylococcus aureus isolate 1610 after 18 hrs by broth microdilution method; assay type: functional; settings: isolate 1610, 18 h
[12] = tested on: Staphylococcus aureus; assay: Antibacterial activity against methicillin-resistant Staphylococcus aureus isolate 7813 after 18 hrs by broth microdilution method; assay type: functional; settings: isolate 7813, 18 h
[13] = tested on: Staphylococcus aureus; assay: Antibacterial activity against methicillin-resistant Staphylococcus aureus isolate 7972 after 18 hrs by broth microdilution method; assay type: functional; settings: isolate 7972, 18 h
[14] = tested on: Staphylococcus aureus; assay: Antibacterial activity against methicillin-resistant Staphylococcus aureus isolate 1220 after 18 hrs by broth microdilution method; assay type: functional; settings: isolate 1220, 18 h
[15] = tested on: Staphylococcus aureus; assay: Antibacterial activity against methicillin-resistant Staphylococcus aureus isolate 6515 after 18 hrs by broth microdilution method; assay type: functional; settings: isolate 6515, 18 h
[16] = tested on: Staphylococcus aureus; assay: Antibacterial activity against methicillin-resistant Staphylococcus aureus isolate 8071 after 18 hrs by broth microdilution method; assay type: functional; settings: isolate 8071, 18 h
[17] = tested on: Staphylococcus aureus; assay: Antibacterial activity against methicillin-resistant Staphylococcus aureus isolate 4955 after 18 hrs by broth microdilution method; assay type: functional; settings: isolate 4955, 18 h
[18] = tested on: Staphylococcus aureus; assay: Antibacterial activity against methicillin-resistant Staphylococcus aureus isolate 2158 after 18 hrs by broth microdilution method; assay type: functional; settings: isolate 2158, 18 h
[19] = tested on: Staphylococcus aureus; assay: Antibacterial activity against methicillin-resistant Staphylococcus aureus isolate 7682 after 18 hrs by broth microdilution method; assay type: functional; settings: isolate 7682, 18 h
[20] = tested on: Staphylococcus aureus; assay: Antibacterial activity against methicillin-resistant Staphylococcus aureus isolate 5239 after 18 hrs by broth microdilution method; assay type: functional; settings: isolate 5239, 18 h
[21] = tested on: Staphylococcus aureus; assay: Antibacterial activity against methicillin-resistant Staphylococcus aureus isolate 2350 after 18 hrs by broth microdilution method; assay type: functional; settings: isolate 2350, 18 h
[22] = tested on: Staphylococcus aureus; assay: Antibacterial activity against methicillin-resistant Staphylococcus aureus isolate 7536 after 18 hrs by broth microdilution method; assay type: functional; settings: isolate 7536, 18 h
[23] = tested on: Staphylococcus aureus; assay: Antibacterial activity against methicillin-resistant Staphylococcus aureus isolate 7434 after 18 hrs by broth microdilution method; assay type: functional; settings: isolate 7434, 18 h
[24] = tested on: Staphylococcus aureus; assay: Antibacterial activity against methicillin-resistant Staphylococcus aureus isolate 7449 after 18 hrs by broth microdilution method; assay type: functional; settings: isolate 7449, 18 h
[25] = target: T1, Cell division protein FtsZ (Staphylococcus aureus) (UniProt P0A031); assay: Inhibition of recombinant Staphylococcus aureus FtsZ polymerization at 8 ug/ml by 90 degree light scattering-based fluorescence spectrometric analysis
T1 sequence (whole entry): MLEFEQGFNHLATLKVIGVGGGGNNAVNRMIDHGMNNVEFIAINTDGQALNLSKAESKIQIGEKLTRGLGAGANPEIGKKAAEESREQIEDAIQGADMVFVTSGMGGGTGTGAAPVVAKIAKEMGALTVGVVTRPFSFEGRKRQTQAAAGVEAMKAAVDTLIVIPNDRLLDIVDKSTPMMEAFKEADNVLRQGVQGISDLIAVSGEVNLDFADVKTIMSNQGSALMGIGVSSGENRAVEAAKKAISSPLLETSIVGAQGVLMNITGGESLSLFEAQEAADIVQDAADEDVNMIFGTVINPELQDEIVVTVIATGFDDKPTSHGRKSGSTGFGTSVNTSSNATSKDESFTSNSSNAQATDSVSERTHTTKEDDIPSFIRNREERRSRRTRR

[26] = tested on: Staphylococcus aureus; assay: Ratio of MIC for Staphylococcus aureus ATCC 29213 after and before 5 serial passages; assay type: functional
[27] = tested on: Enterococcus faecium; assay: Potency index, ratio of berberine MIC to test compound MIC for Enterococcus faecium ATCC 49624; assay type: functional
[28] = tested on: Staphylococcus aureus; assay: Potency index, ratio of methicillin MIC to test compound MIC for methicillin-resistant Staphylococcus aureus ATCC BAA41; assay type: functional
[29] = tested on: Staphylococcus aureus; assay: Potency index, ratio of methicillin MIC to test compound MIC for methicillin-resistant Staphylococcus aureus ATCC BAA1720; assay type: functional
[30] = tested on: Staphylococcus aureus; assay: Bactericidal activity against methicillin-resistant Staphylococcus aureus ATCC 43300 after 18 hrs by broth microdilution method; assay type: functional; settings: ATCC 43300, 18 h
[31] = tested on: Enterococcus faecalis; assay: Bactericidal activity against vancomycin-resistant Enterococcus faecalis ATCC 700221 after 18 hrs by broth microdilution method; assay type: functional; settings: ATCC 700221, 18 h
[32] = tested on: Staphylococcus aureus; assay: Ratio of MBC to MIC for methicillin-resistant Staphylococcus aureus ATCC BAA41; assay type: functional
[33] = tested on: Staphylococcus aureus; assay: Ratio of MBC to MIC for methicillin-resistant Staphylococcus aureus ATCC 43300; assay type: functional

Compound | MIC90 [1] [µg/mL] | MIC90 [2] [µg/mL] | MIC90 [3] [µg/mL] | MIC90 [4] [µg/mL] | MIC90 [5] [µg/mL] | MIC90 [6] [µg/mL] | MIC90 [7] [µg/mL] | MIC90 [8] [µg/mL] | MIC90 [9] [µg/mL] | MIC90 [10] [µg/mL] | MIC90 [11] [µg/mL] | MIC90 [12] [µg/mL] | MIC90 [13] [µg/mL] | MIC90 [14] [µg/mL] | MIC90 [15] [µg/mL] | MIC90 [16] [µg/mL] | MIC90 [17] [µg/mL] | MIC90 [18] [µg/mL] | MIC90 [19] [µg/mL] | MIC90 [20] [µg/mL] | further results
COc1cccc(OC)c1C(=O)N[C@@H]1C(=O)N2[C@@H]1SC(C)(C)[C@@H]2C(=O)O [METHICILLIN] | 0.5 (≈ 1.31 µM) | 6 (≈ 15.8 µM) | 4 (≈ 10.5 µM) | > 192 | > 192 | 6 (≈ 15.8 µM) | > 64 | > 64 | > 64 | > 64 | > 64 | > 64 | > 64 | > 64 | > 64 | > 64 | > 64 | > 64 | > 64 | > 64 | MIC90 [21]: > 64 µg/mL; MIC90 [22]: > 64 µg/mL; MIC90 [23]: > 64 µg/mL; MIC90 [24]: > 64 µg/mL; inhibition [25]: inactive; Ratio [26]: 4
CN[C@H](CC(C)C)C(=O)N[C@H]1C(=O)N[C@@H](CC(N)=O)C(=O)N[C@H]2C(=O)N[C@H]3C(=O)N[C@H](C(=O)N[C@H](C(=O)O)c4cc(O)cc(O)c4-c4cc3ccc4O)[C@H](O)c3ccc(c(Cl)c3)Oc3cc2cc(c3O[C@@H]2O[C@H](CO)[C@@H](O)[C@H](O)[C@H]2O[C@H]2C[C@](C)(N)[C@H](O)[C@H](C)O2)Oc2ccc(cc2Cl)[C@H]1O [VANCOMYCIN] | 1 (≈ 0.69 µM) | > 64 | 2 (≈ 1.38 µM) | 2 (≈ 1.38 µM) | 2 (≈ 1.38 µM) | > 64 | 1 (≈ 0.69 µM) | 2 (≈ 1.38 µM) | 2 (≈ 1.38 µM) | 1 (≈ 0.69 µM) | 1 (≈ 0.69 µM) | 1 (≈ 0.69 µM) | 1 (≈ 0.69 µM) | 0.5 (≈ 0.345 µM) | 1 (≈ 0.69 µM) | 1 (≈ 0.69 µM) | 1 (≈ 0.69 µM) | 1 (≈ 0.69 µM) | 1 (≈ 0.69 µM) | 1 (≈ 0.69 µM) | MIC90 [21]: 1 µg/mL (≈ 0.69 µM); MIC90 [22]: 1 µg/mL (≈ 0.69 µM); MIC90 [23]: 1 µg/mL (≈ 0.69 µM); MIC90 [24]: 1 µg/mL (≈ 0.69 µM)
FC(F)(F)c1ccc(CN2CCCN(CCc3cc(-c4cccs4)nc(-c4ccncc4)n3)CC2)cc1 | 4 (≈ 7.64 µM) | 4 (≈ 7.64 µM) | 128 (≈ 244 µM) | 4 (≈ 7.64 µM) | 4 (≈ 7.64 µM) | 4 (≈ 7.64 µM) | 4 (≈ 7.64 µM) | 4 (≈ 7.64 µM) | 8 (≈ 15.3 µM) | 4 (≈ 7.64 µM) | 8 (≈ 15.3 µM) | 8 (≈ 15.3 µM) | 4 (≈ 7.64 µM) | 4 (≈ 7.64 µM) | 4 (≈ 7.64 µM) | 4 (≈ 7.64 µM) | 4 (≈ 7.64 µM) | 4 (≈ 7.64 µM) | 8 (≈ 15.3 µM) | 4 (≈ 7.64 µM) | Ratio [27]: 50 - 100; Ratio [28]: >100; Ratio [29]: >100; MIC90 [21]: 4 µg/mL (≈ 7.64 µM); MIC90 [22]: 4 µg/mL (≈ 7.64 µM); MIC90 [23]: 8 µg/mL (≈ 15.3 µM); MIC90 [24]: 4 µg/mL (≈ 7.64 µM); MBC [30]: 8 µg/mL (≈ 15.3 µM); MBC [31]: 8 µg/mL (≈ 15.3 µM); Ratio [32]: 1; Ratio [33]: 2
